Assay results published in article PMC10866072, “Design, synthesis, molecular modelling and biological evaluation of novel 6-amino-5-cyano-2-thiopyrimidine derivatives as potent anticancer agents against leukemia and apoptotic inducers” (Journal of Enzyme Inhibition and Medicinal Chemistry, 2024).

Legend:
DU-145 = format: cell-based; details: Homo sapiens, one dose 10^-5 M, 48 h
SR = format: cell-based; details: Homo sapiens, one dose 10^-5 M, 48 h
ACHN = format: cell-based; details: Homo sapiens, one dose 10^-5 M, 48 h
MCF7 = format: cell-based; details: Homo sapiens, one dose 10^-5 M, 48 h, read-out: % growth
UACC-257 = format: cell-based; details: Homo sapiens, one dose 10^-5 M, 48 h
A498 = format: cell-based; details: Homo sapiens, one dose 10^-5 M, 48 h
PC-3 = format: cell-based; details: Homo sapiens, one dose 10^-5 M, 48 h
NCI-H460 = format: cell-based; details: Homo sapiens, one dose 10^-5 M, 48 h, read-out: % growth
MALME-3M = format: cell-based; details: Homo sapiens, one dose 10^-5 M, 48 h
HOP-92 = format: cell-based; details: Homo sapiens, one dose 10^-5 M, 48 h
HOP-62 = format: cell-based; details: Homo sapiens, one dose 10^-5 M, 48 h
SF-295 = format: cell-based; details: Homo sapiens, one dose 10^-5 M, 48 h
SF-539 = format: cell-based; details: Homo sapiens, one dose 10^-5 M, 48 h
MDA-MB-435 = format: cell-based; details: Homo sapiens, one dose 10^-5 M, 48 h, read-out: % growth
MOLT-4 = format: cell-based; details: Homo sapiens, one dose 10^-5 M, 48 h, read-out: % growth
IGROV1 = format: cell-based; details: Homo sapiens, IGROV-1, one dose 10^-5 M, 48 h, read-out: % growth
[1] = tested on: full NCI 60 cell lines panel; details: for activity at 10 µM: Homo sapiens, 60 cell, 48 h, read-out: Mean % growth; for activity on all 60 cancer cell lines tested (in words): one dose
Protocol: 60 different human tumour cell lines-representing leukaemia, melanoma, and malignancies of the lung, colon, brain, ovary, breast, prostate, and kidney are used in the operation of this screen.
Compounds were dissolved in DMSO: glycerol (91) and were kept in a freezer at −70° C. The synthesised compounds were introduced to the culture at a single concentration of 1 0 ^−5 M and left to incubate for 48 h. A protein-binding dye called sulforhodamine B was used to measure end points (SRB).
A mean graph showing the % growth of treated cells is used to represent the one-dose data. The value provided for the One-dose assay represents growth in comparison to the no-drug control and to the number of cells at time zero. This enables the identification of lethality (values between 0 and 100) as well as growth inhibition (values less than 0). A value of 100, for instance, indicates no growth inhibition. A value of 40 would indicate 60% growth inhibition. A value of 0 indicates no net growth over the course of the experiment. A value of −40 would indicate 40% lethality.
Furthermore, the average sensitivity of all cell lines to the compound is termed as the full panel mean graph midpoints (MG-MID). The complete panel mean graph midpoints refers to the average sensitivity of all cell lines to the chemical (MG-MID). A measure of a compound’s selectivity for a given cell line is the ratio created by dividing the full panel mean graph midpoints (MG-MID) concentration by the individual subpanel MG-MID concentrations (obtained as the average sensitivity of all the cell lines in a given subpanel to the test compound).

SK-MEL-2 = format: cell-based; details: Homo sapiens, one dose 10^-5 M, 48 h
OVCAR-8 = format: cell-based; details: Homo sapiens, one dose 10^-5 M, 48 h
RPMI-8226 = format: cell-based; details: Homo sapiens, one dose 10^-5 M, 48 h
CCRF-CEM = format: cell-based; details: Homo sapiens, one dose 10^-5 M, 48 h
SW-620 = format: cell-based; details: Homo sapiens, one dose 10^-5 M, 48 h
HS 578T = format: cell-based; details: Homo sapiens; one dose 10^-5 M, 48 h; HS 578T; read-out: % growth
MDA-MB-468 = format: cell-based; details: Homo sapiens, one dose 10^-5 M, 48 h
NCI-H226 = format: cell-based; details: Homo sapiens, one dose 10^-5 M, 48 h
SK-MEL-5 = format: cell-based; details: Homo sapiens, one dose 10^-5 M, 48 h, read-out: % growth
786-0 = format: cell-based; details: Homo sapiens, one dose 10^-5 M, 48 h
HT29 = format: cell-based; details: Homo sapiens, HT-29, one dose 10^-5 M, 48 h
SK-MEL-28 = format: cell-based; details: Homo sapiens, one dose 10^-5 M, 48 h
UO-31 = format: cell-based; details: Homo sapiens, UO-31, 48 h, one dose 10^-5 M, 48 h
M14 = format: cell-based; details: Homo sapiens, one dose 10^-5 M, 48 h
MDA-MB-231/ATCC = format: cell-based; details: Homo sapiens, one dose 10^-5 M, 48 h
NCI-H23 = format: cell-based; details: Homo sapiens, one dose 10^-5 M, 48 h, read-out: % growth
OVCAR-5 = format: cell-based; details: Homo sapiens, one dose 10^-5 M, 48 h
OVCAR-4 = format: cell-based; details: Homo sapiens, one dose 10^-5 M, 48 h
BT-549 = format: cell-based; details: Homo sapiens, one dose 10^-5 M, 48 h
UACC-62 = format: cell-based; details: Homo sapiens, one dose 10^-5 M, 48 h
HCT-116 = format: cell-based; details: Homo sapiens, one dose 10^-5 M, 48 h, read-out: % growth
A549/ATCC = format: cell-based; details: Homo sapiens, one dose 10^-5 M, 48 h
RXF 393 = format: cell-based; details: Homo sapiens, RXF 393, 48 h, one dose 10^-5 M, 48 h, read-out: % growth
CAKI-1 = format: cell-based; details: Homo sapiens, CAKI-1, 48 h, one dose 10^-5 M, 48 h
EKVX = format: cell-based; details: Homo sapiens, one dose 10^-5 M, 48 h
LOX IMVI = format: cell-based; details: Homo sapiens, one dose 10^-5 M, 48 h, read-out: % growth
SN12C = format: cell-based, human; details: Homo sapiens, one dose 10^-5 M, 48 h
U251 = format: cell-based; details: Homo sapiens, U-251, one dose 10^-5 M, 48 h
K-562 = format: cell-based; details: Homo sapiens, K562, one dose 10^-5 M, 48 h
HCC-2998 = format: cell-based; details: Homo sapiens, one dose 10^-5 M, 48 h
HCT-15 = format: cell-based; details: Homo sapiens, one dose 10^-5 M, 48 h, read-out: % growth
SF-268 = format: cell-based; details: Homo sapiens, one dose 10^-5 M, 48 h, read-out: % growth
TK-10 = format: cell-based; details: Homo sapiens, one dose 10^-5 M, 48 h
NCI/ADR-RES = format: cell-based; details: Homo sapiens, one dose 10^-5 M, 48 h
NCI-H522 = format: cell-based; details: Homo sapiens, one dose 10^-5 M, 48 h
T-47D = format: cell-based; details: Homo sapiens, T47D, one dose 10^-5 M, 48 h, read-out: % growth
SK-OV-3 = format: cell-based; details: Homo sapiens, one dose 10^-5 M, 48 h
SNB-19 = format: cell-based; details: Homo sapiens, one dose 10^-5 M, 48 h, read-out: % growth
COLO 205 = format: cell-based; details: Homo sapiens, one dose 10^-5 M, 48 h
KM12 = format: cell-based; details: Homo sapiens, one dose 10^-5 M, 48 h
HL-60(TB) = format: cell-based; details: Homo sapiens, one dose 10^-5 M, 48 h
OVCAR-3 = format: cell-based; details: Homo sapiens, one dose 10^-5 M, 48 h

COc1ccc(C=NNC(=N)c2c(N)nc(S)nc2-c2ccc(Cl)cc2Cl)cc1 [Compound 4p, 4-amino-6–(2,4-dichlorophenyl)-2-mercapto-N'-[(4-methoxyphenyl)methylene] pyrimidine-5-carboximidohydrazide]
% growth at 10 µM (DU-145): 110% | percent cell growth at 10 µM (SR): 97.5% | % growth at 10 µM (ACHN): 110% | activity at 10 µM (MCF7): 91.5% | percent cell growth at 10 µM (UACC-257): 103% | % growth at 10 µM (A498): 138% | percent cell growth at 10 µM (PC-3): 98.9% | activity at 10 µM (NCI-H460): 113% | % growth at 10 µM (MALME-3M): 89.4% | % growth at 10 µM (HOP-92): 74.8% | % growth at 10 µM (HOP-62): 90.2% | % cell growth at 10 µM (SF-295): 85.8% | % growth at 10 µM (SF-539): 96.8% | activity at 10 µM (MDA-MB-435): 113% | activity at 10 µM (MOLT-4): 95.7% | activity at 10 µM (IGROV1): 108% | activity at 10 µM [1]: 104% | activity on all 60 cancer cell lines tested (in words) [1]: weak activity | % growth at 10 µM (SK-MEL-2): 115% | % growth of cells at 10 µM (OVCAR-8): 103% | % growth at 10 µM (RPMI-8226): 99.4% | % cell growth at 10 µM (CCRF-CEM): 99.1% | % growth at 10 µM (SW-620): 105% | activity at 10 µM (HS 578T): 105% | percent cell growth at 10 µM (MDA-MB-468): 105% | % growth at 10 µM (NCI-H226): 97.2% | activity at 10 µM (SK-MEL-5): 105% | % growth at 10 µM (786-0): 90.2% | % growth at 10 µM (HT29): 106% | % cell growth at 10 µM (SK-MEL-28): 112% | % cell growth at 10 µM (UO-31): 97.7% | % growth at 10 µM (M14): 107% | % growth at 10 µM (MDA-MB-231/ATCC): 90.5% | activity at 10 µM (NCI-H23): 100% | percent cell growth at 10 µM (OVCAR-5): 117% | % growth at 10 µM (OVCAR-4): 122% | % cell growth at 10 µM (BT-549): 95.6% | % growth at 10 µM (UACC-62): 97.2% | activity at 10 µM (HCT-116): 99.8% | % growth at 10 µM (A549/ATCC): 102% | activity at 10 µM (RXF 393): 94.5% | % growth at 10 µM (CAKI-1): 97.3% | % cell growth at 10 µM (EKVX): 108% | activity at 10 µM (LOX IMVI): 103% | % growth at 10 µM (SN12C): 108% | % growth at 10 µM (U251): 103% | % growth at 10 µM (K-562): 102% | % growth at 10 µM (HCC-2998): 118% | activity at 10 µM (HCT-15): 106% | activity at 10 µM (SF-268): 104% | % cell growth at 10 µM (TK-10): 143% | cell growth percent at 10 µM (NCI/ADR-RES): 114% | % growth at 10 µM (NCI-H522): 97.5% | activity at 10 µM (T-47D): 100% | % growth at 10 µM (SK-OV-3): 108% | activity at 10 µM (SNB-19): 93% | % growth at 10 µM (COLO 205): 127% | % growth at 10 µM (KM12): 104% | % growth at 10 µM (HL-60(TB)): 96.9% | % growth at 10 µM (OVCAR-3): 113%

N=C(NN=Cc1ccc(Br)cc1)c1c(N)nc(S)nc1-c1ccc(Cl)cc1Cl [Compound 4q, 4-amino-N'-[(4-bromophenyl)methylene]-6–(2,4-dichlorophenyl)-2-mercapto pyrimidine-5-carboximidohydrazide]
% growth at 10 µM (DU-145): 108% | percent cell growth at 10 µM (SR): 86.7% | % growth at 10 µM (ACHN): 108% | activity at 10 µM (MCF7): 90.9% | percent cell growth at 10 µM (UACC-257): 102% | % growth at 10 µM (A498): 129% | percent cell growth at 10 µM (PC-3): 102% | activity at 10 µM (NCI-H460): 110% | % growth at 10 µM (MALME-3M): 91.2% | % growth at 10 µM (HOP-92): 102% | % growth at 10 µM (HOP-62): 101% | % cell growth at 10 µM (SF-295): 96.6% | % growth at 10 µM (SF-539): 102% | activity at 10 µM (MDA-MB-435): 104% | activity at 10 µM (MOLT-4): 91.4% | activity at 10 µM (IGROV1): 105% | activity at 10 µM [1]: 104% | activity on all 60 cancer cell lines tested (in words) [1]: weak activity | % growth at 10 µM (SK-MEL-2): 109% | % growth of cells at 10 µM (OVCAR-8): 114% | % growth at 10 µM (RPMI-8226): 98.8% | % cell growth at 10 µM (CCRF-CEM): 96.8% | % growth at 10 µM (SW-620): 108% | activity at 10 µM (HS 578T): 118% | percent cell growth at 10 µM (MDA-MB-468): 113% | % growth at 10 µM (NCI-H226): 107% | activity at 10 µM (SK-MEL-5): 104% | % growth at 10 µM (786-0): 93.8% | % growth at 10 µM (HT29): 112% | % cell growth at 10 µM (SK-MEL-28): 106% | % cell growth at 10 µM (UO-31): 94.2% | % growth at 10 µM (M14): 101% | % growth at 10 µM (MDA-MB-231/ATCC): 98.5% | activity at 10 µM (NCI-H23): 102% | percent cell growth at 10 µM (OVCAR-5): 119% | % growth at 10 µM (OVCAR-4): 109% | % cell growth at 10 µM (BT-549): 97.7% | % growth at 10 µM (UACC-62): 96.4% | activity at 10 µM (HCT-116): 96.2% | % growth at 10 µM (A549/ATCC): 98.8% | activity at 10 µM (RXF 393): 101% | % growth at 10 µM (CAKI-1): 86.9% | % cell growth at 10 µM (EKVX): 108% | activity at 10 µM (LOX IMVI): 109% | % growth at 10 µM (SN12C): 103% | % growth at 10 µM (U251): 107% | % growth at 10 µM (K-562): 92.2% | % growth at 10 µM (HCC-2998): 114% | activity at 10 µM (HCT-15): 108% | activity at 10 µM (SF-268): 105% | % cell growth at 10 µM (TK-10): 148% | cell growth percent at 10 µM (NCI/ADR-RES): 114% | % growth at 10 µM (NCI-H522): 101% | activity at 10 µM (T-47D): 110% | % growth at 10 µM (SK-OV-3): 103% | activity at 10 µM (SNB-19): 99.2% | % growth at 10 µM (COLO 205): 114% | % growth at 10 µM (KM12): 100% | % growth at 10 µM (HL-60(TB)): 96.5% | % growth at 10 µM (OVCAR-3): 104%
